Assay results: patent US8334239B2, “High affinity VEGF-receptor antagonists” (The Board of Regents of the University of Texas System, priority 2007, dated 2012)
Positions of bridges follow the written chain, without caps; N, C: chain ends. Non-standard residues stand in square brackets, D forms with d. Residues, ends and D or L forms follow the SMILES beside them. Chains are numbered I, II in the order given. *: point of attachment. Fluorescein(5-Mal) = O=C1OC2(c3ccc(O)cc3Oc3cc(O)ccc32)c2ccc(N3C(=O)CC(*)C3=O)cc21; Gly(N(CH2)2(3-indolyl)) = O=C(O)CNCCc1c[nH]c2ccccc12; Gly(N-piperonyl) = O=C(O)CNCc1ccc2c(c1)OCO2; Nrpe = C[C@@H](NCC(=O)O)c1ccccc1; NFurfurylGly = O=C(O)CNCc1ccco1; Nleu = CC(C)CNCC(=O)O; Nlys = NCCCCNCC(=O)O; Ahx = NCCCCCC(=O)O; βAla = NCCC(=O)O

What was measured:
[1] = target: T1, VEGFR2 (Homo sapiens, UniProt P35968); assay: ELISA-like binding assay, fluoresceinated peptoids on immobilized VEGFR2 extracellular domain; set-up: VEGFR2 extracellular domain (amino acids 1-764 fused to 6× histidine-tagged Fc of human IgG, via the peptide IEGRMD; R&D Systems); linker peptide IEGRMD (internal); Fc of human IgG (C); 6xHis (C); purchased R&D Systems; conditions: binding improved compared to the monomer of the series
Protocol: ELISA based binding assay. White, clear bottom 96-well plates (Corning Inc.) were coated with of 1 μg/ml recombinant human VEGFR2 protein (R&D Systems) using the sensitizing buffer (0.621 g NaHCO3 & 0.275 g Na2CO3 dissolved on 100 ml of ddH2O, pH=9.5) overnight at 4° C. Washed with 3×200 μl of wash buffer 1×PBS with 0.05% Tween-20 and blocked with Startingblock blocking buffer (Pierce). Added 50 μl of serial dilutions of FITC labeled peptoids dissolved in Startingblock blocking buffer to each well & allowed to react for 1 h at room temperature. Washed with 5×200 μl of wash buffer 1×PBS with 0.05% Tween-20 and remaining fluorescence was measured at 520 nm using the plate reader.
The isolated peptoids are VEGFR2 ligands. Two of the ‘hits’ from this screen, GU40C and GU40E (see FIG. 2) were resynthesized, both as free compounds and with C-terminal Cys (for C-terminal fluorescein tagging via maleimide chemistry), cleaved from the beads and purified to apparent homogeneity by reverse phase HPLC. […] The association of these peptoids with VEGFR2 was evaluated using an ELISA-like assay. A commercially available fusion protein containing the VEGFR2 extracellular domain (amino acids 1-764 fused to 6× histidine-tagged Fc of human IgG, via the peptide IEGRMD; R&D Systems) was plated into 96-well plates and then mixed with various concentrations of […] Fluorescein (FITC)-labeled peptoid. After washing away unbound peptoid, the remaining fluorescence emission signal was measured at 520 nm. In this assay purified VEGFR2 protein was used instead of the whole PAE/KDR cells that over express VEGFR2, in order to confirm these compounds were binding only to the receptor.
Target sequence in this assay (P35968 20-764): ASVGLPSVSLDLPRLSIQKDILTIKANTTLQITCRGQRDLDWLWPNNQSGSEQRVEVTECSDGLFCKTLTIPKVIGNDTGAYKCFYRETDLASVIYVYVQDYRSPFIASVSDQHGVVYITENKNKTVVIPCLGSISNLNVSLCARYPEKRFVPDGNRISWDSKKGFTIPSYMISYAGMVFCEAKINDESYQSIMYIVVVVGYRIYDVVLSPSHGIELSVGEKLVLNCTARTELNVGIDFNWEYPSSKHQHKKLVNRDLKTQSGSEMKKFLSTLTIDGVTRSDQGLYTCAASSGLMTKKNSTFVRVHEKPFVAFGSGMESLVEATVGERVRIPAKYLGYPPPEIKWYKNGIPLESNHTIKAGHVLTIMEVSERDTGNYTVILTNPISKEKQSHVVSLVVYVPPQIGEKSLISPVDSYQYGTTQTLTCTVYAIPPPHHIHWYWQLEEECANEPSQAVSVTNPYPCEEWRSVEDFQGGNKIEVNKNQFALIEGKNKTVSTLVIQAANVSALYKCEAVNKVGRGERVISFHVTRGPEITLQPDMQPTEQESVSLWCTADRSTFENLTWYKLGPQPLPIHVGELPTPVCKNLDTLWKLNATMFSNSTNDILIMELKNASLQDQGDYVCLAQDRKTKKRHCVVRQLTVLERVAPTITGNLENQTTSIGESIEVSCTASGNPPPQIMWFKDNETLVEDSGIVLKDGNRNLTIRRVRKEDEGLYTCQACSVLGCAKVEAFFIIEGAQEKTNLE

[2] = target: T1, VEGFR2; assay: VEGF-induced VEGFR2 autophosphorylation in PAE/KDR cells, Western blot; assay type: cell-based; set-up: allow the library to be screened against the full-length receptor in as natural an environment as possible; host or cells: PAE/KDR (porcine aortic endothelial cells expressing human KDR)
Protocol: Western blots. Experiments were conducted using PAE/KDR cells that were grown on 6-well plates. […] The blots were probed with Phospho-VEGF receptor 2 (Tyr1175) (19A10) rabbit monoclonal or Total VEGFR2 primary antibodies (Cell signaling) and HRP-conjugated secondary antibody (BioRad).
Functional characterization of the VEGFR2-binding peptoids. GU40C and GU40E were then tested for their ability to modulate VEGFR function. Of course, since the screen simply demanded binding of the peptoid to the receptor, it was not a given that this would be the case. […] Western blot analysis using phospho-VEGFR2-specific antibodies was then employed to monitor receptor activation.
To do so, the inventors examined the effect of the peptoid on VEGF-induced VEGFR2 autophosphorylation by Western blotting, as described earlier.
Target sequence in this assay (P35968 20-1356): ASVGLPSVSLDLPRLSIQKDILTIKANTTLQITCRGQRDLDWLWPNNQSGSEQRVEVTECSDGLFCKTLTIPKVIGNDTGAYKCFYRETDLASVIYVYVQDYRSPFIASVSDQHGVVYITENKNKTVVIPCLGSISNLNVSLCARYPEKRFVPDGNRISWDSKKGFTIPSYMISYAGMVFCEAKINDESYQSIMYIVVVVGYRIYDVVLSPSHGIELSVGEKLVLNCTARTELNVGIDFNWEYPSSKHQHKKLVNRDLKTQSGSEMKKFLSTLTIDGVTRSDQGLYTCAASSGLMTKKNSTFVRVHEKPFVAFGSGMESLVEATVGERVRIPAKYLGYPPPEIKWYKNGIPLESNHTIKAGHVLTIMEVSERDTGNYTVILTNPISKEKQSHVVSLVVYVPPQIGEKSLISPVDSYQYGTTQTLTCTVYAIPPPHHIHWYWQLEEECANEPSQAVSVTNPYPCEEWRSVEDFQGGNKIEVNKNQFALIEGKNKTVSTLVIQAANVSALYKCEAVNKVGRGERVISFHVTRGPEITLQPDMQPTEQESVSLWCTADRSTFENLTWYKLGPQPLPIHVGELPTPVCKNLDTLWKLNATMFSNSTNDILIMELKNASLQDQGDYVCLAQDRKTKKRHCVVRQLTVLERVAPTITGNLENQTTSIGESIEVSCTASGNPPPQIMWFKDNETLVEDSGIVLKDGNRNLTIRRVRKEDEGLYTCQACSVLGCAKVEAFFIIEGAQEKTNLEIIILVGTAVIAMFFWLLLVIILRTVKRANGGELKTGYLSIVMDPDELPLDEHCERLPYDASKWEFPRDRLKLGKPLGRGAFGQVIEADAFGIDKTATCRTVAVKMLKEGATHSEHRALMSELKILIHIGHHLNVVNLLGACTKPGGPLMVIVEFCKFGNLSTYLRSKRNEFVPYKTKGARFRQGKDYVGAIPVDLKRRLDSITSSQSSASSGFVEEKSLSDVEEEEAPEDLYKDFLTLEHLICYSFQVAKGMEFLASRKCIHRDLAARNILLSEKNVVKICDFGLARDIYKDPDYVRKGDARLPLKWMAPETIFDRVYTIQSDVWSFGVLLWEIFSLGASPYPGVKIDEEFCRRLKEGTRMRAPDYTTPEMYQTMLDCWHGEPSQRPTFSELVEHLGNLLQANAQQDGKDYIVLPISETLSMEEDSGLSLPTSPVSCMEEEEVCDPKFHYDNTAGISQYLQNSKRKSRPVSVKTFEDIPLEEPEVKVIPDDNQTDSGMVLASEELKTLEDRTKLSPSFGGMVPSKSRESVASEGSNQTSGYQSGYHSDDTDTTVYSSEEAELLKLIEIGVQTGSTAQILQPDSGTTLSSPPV

Fold improved [1] [fold] | Compound | other results
11 | CC(C)CN(CC(=O)N(CCCCN)CC(=O)N(CC(=O)N(CC(=O)N(CCCCN)CC(=O)N(CC(=O)N(CCCCN)CC(=O)N(CCCCN)CC(=O)NCCCC[C@H](NC(=O)CCNC(=O)CN(CCCCN)C(=O)CN(CCCCN)C(=O)CN(CC(C)C)C(=O)CN(CCCCN)C(=O)CN(Cc1ccc2c(c1)OCO2)C(=O)CN(C(=O)CN(CCCCN)C(=O)CN(CC(C)C)C(=O)CNCCCCN)[C@H](C)c1ccccc1)C(=O)N[C@@H](CSC1CC(=O)N(c2ccc3c(c2)C(=O)OC32c3ccc(O)cc3Oc3cc(O)ccc32)C1=O)C(N)=O)CC(C)C)Cc1ccc2c(c1)OCO2)[C@H](C)c1ccccc1)C(=O)CNCCCCN (stereo partly drawn) [GU40C2] (I: H-[Nlys][Nleu][Nlys][Nrpe][Gly(N-piperonyl)][Nlys][Nleu][Nlys][Nlys][βAla]KC(Fluorescein(5-Mal))-NH2 / II: H-[Nlys][Nleu][Nlys][Nrpe][Gly(N-piperonyl)][Nlys][Nleu][Nlys][Nlys]; amide I:11-II:C; N-terminus assumed) | 
2 | CC(C)CN(CC(=O)N(CCCCN)CC(=O)N(CCCCN)CC(=O)NCCCC[C@H](NC(=O)CCNC(=O)CN(CCCCN)C(=O)CN(CCCCN)C(=O)CN(CC(C)C)C(=O)CN(CCCCN)C(=O)CN(CC(C)C)C(=O)CN(CCCCN)C(=O)CN(Cc1ccco1)C(=O)CN(CCCCN)C(=O)CNCCc1c[nH]c2ccccc12)C(=O)N[C@@H](CSC1CC(=O)N(c2ccc3c(c2)C(=O)OC32c3ccc(O)cc3Oc3cc(O)ccc32)C1=O)C(N)=O)C(=O)CN(CCCCN)C(=O)CN(CC(C)C)C(=O)CN(CCCCN)C(=O)CN(Cc1ccco1)C(=O)CN(CCCCN)C(=O)CNCCc1c[nH]c2ccccc12 (stereo partly drawn) [GU40E2] (I: H-[Gly(N(CH2)2(3-indolyl))][Nlys][NFurfurylGly][Nlys][Nleu][Nlys][Nleu][Nlys][Nlys][βAla]KC(Fluorescein(5-Mal))-NH2 / II: H-[Gly(N(CH2)2(3-indolyl))][Nlys][NFurfurylGly][Nlys][Nleu][Nlys][Nleu][Nlys][Nlys]; amide I:11-II:C; N-terminus assumed) | 
9 | CC(C)CN(CC(=O)N(CCCCN)CC(=O)N(CCCCN)CC(=O)NCCCCCC(=O)NCCC(=O)N[C@@H](CCCCNC(=O)CN(CCCCN)C(=O)CN(CCCCN)C(=O)CN(CC(C)C)C(=O)CN(CCCCN)C(=O)CN(CC(C)C)C(=O)CN(CCCCN)C(=O)CN(Cc1ccco1)C(=O)CN(CCCCN)C(=O)CNCCc1c[nH]c2ccccc12)C(=O)N[C@@H](CSC1CC(=O)N(c2ccc3c(c2)C(=O)OC32c3ccc(O)cc3Oc3cc(O)ccc32)C1=O)C(N)=O)C(=O)CN(CCCCN)C(=O)CN(CC(C)C)C(=O)CN(CCCCN)C(=O)CN(Cc1ccco1)C(=O)CN(CCCCN)C(=O)CNCCc1c[nH]c2ccccc12 (stereo partly drawn) [GU40E4] (I: H-[Gly(N(CH2)2(3-indolyl))][Nlys][NFurfurylGly][Nlys][Nleu][Nlys][Nleu][Nlys][Nlys][Ahx][βAla]KC(Fluorescein(5-Mal))-NH2 / II: H-[Gly(N(CH2)2(3-indolyl))][Nlys][NFurfurylGly][Nlys][Nleu][Nlys][Nleu][Nlys][Nlys]; amide I:12-II:C; N-terminus assumed) | 
 | Avastin: ultra-high affinity anti-VEGF antibody employed clinically [reference compound] | effect on VEGFR2 autophosphorylation (in words) ([2]; 1 μM, 1.3 nM VEGF): completely blocked
 | Nlys-Npip-Nleu-Nlys-Npip-Nlys-Nleu-Nlys-Nlys [GU40B] | agonist activity on VEGFR2 phosphorylation ([2]; PAE/KDR cells, Western blot): None of the peptoids exhibited agonist activity; effect on VEGF-induced VEGFR2 phosphorylation (in words) ([2]; monomeric peptoids, 500 μM, 1.3 nM VEGF): no effect
